The record followed here is PMC11173529, “Structure–Activity Relationship Studies in a Series of Xanthine Inhibitors of SLACK Potassium Channels” (Molecules, 2024).

As usually defined, the inhibition is how much of the control response was suppressed.

Assay type in all cases: cell-based
In one assay the target is T1, SLICK (Homo sapiens, UniProt Q6UVM3).
T1 construct: expressed in transfected cells; host or cells: HEK293
T1 sequence (Q6UVM3 1-1135): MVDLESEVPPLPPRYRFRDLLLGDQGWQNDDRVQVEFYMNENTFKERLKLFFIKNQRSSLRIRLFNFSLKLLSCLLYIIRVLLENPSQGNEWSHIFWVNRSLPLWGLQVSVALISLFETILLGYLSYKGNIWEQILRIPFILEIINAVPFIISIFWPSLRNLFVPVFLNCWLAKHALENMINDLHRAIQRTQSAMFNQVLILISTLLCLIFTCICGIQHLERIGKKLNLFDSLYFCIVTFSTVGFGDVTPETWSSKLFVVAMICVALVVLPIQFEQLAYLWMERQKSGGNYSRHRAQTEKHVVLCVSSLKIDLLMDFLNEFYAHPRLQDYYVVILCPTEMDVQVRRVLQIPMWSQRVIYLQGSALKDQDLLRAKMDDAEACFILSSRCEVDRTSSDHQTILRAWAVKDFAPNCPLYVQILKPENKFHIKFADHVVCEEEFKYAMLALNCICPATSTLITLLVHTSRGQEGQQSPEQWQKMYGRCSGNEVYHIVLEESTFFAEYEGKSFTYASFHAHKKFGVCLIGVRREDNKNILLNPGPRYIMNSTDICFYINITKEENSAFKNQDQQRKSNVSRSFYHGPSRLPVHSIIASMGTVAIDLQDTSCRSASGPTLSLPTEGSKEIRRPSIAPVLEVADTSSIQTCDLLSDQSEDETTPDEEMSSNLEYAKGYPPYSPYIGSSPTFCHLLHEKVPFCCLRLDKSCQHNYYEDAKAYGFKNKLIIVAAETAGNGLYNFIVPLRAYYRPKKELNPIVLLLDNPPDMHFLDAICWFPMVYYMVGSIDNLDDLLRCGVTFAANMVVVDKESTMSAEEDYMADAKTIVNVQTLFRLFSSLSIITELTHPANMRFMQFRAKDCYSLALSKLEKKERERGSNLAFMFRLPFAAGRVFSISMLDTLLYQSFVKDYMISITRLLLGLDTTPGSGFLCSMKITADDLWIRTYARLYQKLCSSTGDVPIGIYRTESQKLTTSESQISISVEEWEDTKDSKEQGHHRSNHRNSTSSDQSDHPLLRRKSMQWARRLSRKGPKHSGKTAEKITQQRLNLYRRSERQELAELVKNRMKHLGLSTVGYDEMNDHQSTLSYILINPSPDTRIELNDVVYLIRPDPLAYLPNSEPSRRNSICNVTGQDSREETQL
Nature of the assay: Tl+-flux selectivity panel in HEK-293 cells: SLICK. The conditions noted are these: HEK293, 10 µM test compound, relative to control SKF96365, read-out: Percent Inhibition ± SEM. As for the experimental part: (§1) With a handful of analogs that offered improved SLACK potency relative to hit compound 8, we next proceeded to investigate the ancillary pharmacology of such compounds, both with respect to other Slo family members as well as versus a spectrum of diverse ion channels (Table 5). Thus, we screened four compounds (32, 48, 70, and 71) at 10 µM in our in-house selectivity panel of Tl^+-flux assays in HEK-293 cells stably expressing the target of interest. […] Some valuable SAR was noted as well. […] Reduction of inhibition at Maxi-K α1/β4 also followed. This SAR will be important to bear in mind for continued optimization within this series. […] Of particular note is the lack of significant hERG activity in this series, as activity versus that counter-target has been an issue with other SLACK inhibitors.
(§2) Stably transfected monoclonal HEK293 cell lines expressing Slick, Maxi-K α1/β3, Maxi-K α1/β4, CaV3.2, GIRK 1/2, KV2.1, KV7.2, NaV1.7, and TASK-1 were generated as previously described. Stably transfected monoclonal HEK293 cell lines expressing hERG were generated as previously described. CHO-K1 cells expressing human Slack and disease-associated human Slack mutations, G288S and A934T, were generated by transfecting a PiggyBac TRE mammalian expression vector (VectorBuilder, Chicago, IL, USA) containing KCNT1. FuGENE 6 (Promega, Madison, WI, USA) transfection reagent and protocol, together with Opti-MEM (Thermo Fisher Scientific, Walkham, MA, USA), were utilized.
(§3) The Tl^+ flux assays were conducted as previously described with modifications optimized for individual cell lines as described below. Following removal of cell culture media, cells were loaded with Tl^+-sensitive dye loading solution containing Thallos-AM (ION Biosciences, San Marcos, TX, USA), 1.25 mM Probenecid, and 0.3% Pluronic F-127 (MilliporeSigma, Burlington, MA, USA), in assay buffer comprised of Hanks Balanced Salt Solution (HBSS) (Thermo Fisher Scientific, Waltham, MA, USA) and 20 mM HEPES (Corning, Corning, NY, USA) at room temperature for one-hour. Dye loading solution was replaced with 20 μL/well of assay buffer prior to assaying. Cell plates were then loaded onto a Panoptic kinetic imaging plate reader (WaveFront Biosciences, Franklin, TN, USA). Data were acquired at 5 Hz (excitation 482 ± 35 nm, emission 536 ± 40 nm) for 10 s, at which time 20 μL/well of test compounds in assay buffer at 2-fold above the desired final concentration was added and allowed to incubate for 120 s. Next, 10 μL/well of Tl^+ stimulus buffer (129 mM Na gluconate, 1.2 mM CaSO4, 1 MgSO4, 1 mM Na2HPO4, 4.17 mM NaHCO3, 5.56 mM glucose, 2.5 mM Tl2SO4, and 10 mM HEPES pH 7.3) was added. Imaging was concluded after an additional 120 s.

The next assay concerns the target T2, CaV3.2 (Homo sapiens, UniProt O95180).
T2 construct: expressed in transfected cells; host or cells: HEK293
Nature of the assay: Tl+-flux selectivity panel in HEK-293 cells: CaV3.2. The conditions noted are these: HEK293, 10 µM test compound, relative to control bepridil, read-out: Percent Inhibition ± SEM. As for the experimental part: as §1, §2, §3

The target in the next assay is T3, TASK-1 (Homo sapiens, UniProt O14649).
T3 construct: expressed in transfected cells; host or cells: HEK293
T3 sequence (O14649 whole entry, species assumed): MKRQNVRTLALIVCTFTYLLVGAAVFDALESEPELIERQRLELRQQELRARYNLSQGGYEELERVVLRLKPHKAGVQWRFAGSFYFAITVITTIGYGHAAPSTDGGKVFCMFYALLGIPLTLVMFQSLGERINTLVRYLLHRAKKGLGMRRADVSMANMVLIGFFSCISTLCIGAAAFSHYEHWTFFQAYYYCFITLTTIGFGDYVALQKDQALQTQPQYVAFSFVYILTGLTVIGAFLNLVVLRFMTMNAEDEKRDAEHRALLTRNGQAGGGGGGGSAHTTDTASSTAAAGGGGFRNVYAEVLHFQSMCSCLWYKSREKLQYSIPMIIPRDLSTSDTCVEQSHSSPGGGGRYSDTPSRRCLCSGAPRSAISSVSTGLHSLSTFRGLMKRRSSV
In words: Tl+-flux selectivity panel in HEK-293 cells: TASK-1. The conditions noted are these: HEK293, 10 µM test compound, relative to control bepridil, read-out: Percent Inhibition ± SEM. Here is the method:
as §1, §2, §3

Structures are written as SMILES.

T2 sequence (O95180 whole entry): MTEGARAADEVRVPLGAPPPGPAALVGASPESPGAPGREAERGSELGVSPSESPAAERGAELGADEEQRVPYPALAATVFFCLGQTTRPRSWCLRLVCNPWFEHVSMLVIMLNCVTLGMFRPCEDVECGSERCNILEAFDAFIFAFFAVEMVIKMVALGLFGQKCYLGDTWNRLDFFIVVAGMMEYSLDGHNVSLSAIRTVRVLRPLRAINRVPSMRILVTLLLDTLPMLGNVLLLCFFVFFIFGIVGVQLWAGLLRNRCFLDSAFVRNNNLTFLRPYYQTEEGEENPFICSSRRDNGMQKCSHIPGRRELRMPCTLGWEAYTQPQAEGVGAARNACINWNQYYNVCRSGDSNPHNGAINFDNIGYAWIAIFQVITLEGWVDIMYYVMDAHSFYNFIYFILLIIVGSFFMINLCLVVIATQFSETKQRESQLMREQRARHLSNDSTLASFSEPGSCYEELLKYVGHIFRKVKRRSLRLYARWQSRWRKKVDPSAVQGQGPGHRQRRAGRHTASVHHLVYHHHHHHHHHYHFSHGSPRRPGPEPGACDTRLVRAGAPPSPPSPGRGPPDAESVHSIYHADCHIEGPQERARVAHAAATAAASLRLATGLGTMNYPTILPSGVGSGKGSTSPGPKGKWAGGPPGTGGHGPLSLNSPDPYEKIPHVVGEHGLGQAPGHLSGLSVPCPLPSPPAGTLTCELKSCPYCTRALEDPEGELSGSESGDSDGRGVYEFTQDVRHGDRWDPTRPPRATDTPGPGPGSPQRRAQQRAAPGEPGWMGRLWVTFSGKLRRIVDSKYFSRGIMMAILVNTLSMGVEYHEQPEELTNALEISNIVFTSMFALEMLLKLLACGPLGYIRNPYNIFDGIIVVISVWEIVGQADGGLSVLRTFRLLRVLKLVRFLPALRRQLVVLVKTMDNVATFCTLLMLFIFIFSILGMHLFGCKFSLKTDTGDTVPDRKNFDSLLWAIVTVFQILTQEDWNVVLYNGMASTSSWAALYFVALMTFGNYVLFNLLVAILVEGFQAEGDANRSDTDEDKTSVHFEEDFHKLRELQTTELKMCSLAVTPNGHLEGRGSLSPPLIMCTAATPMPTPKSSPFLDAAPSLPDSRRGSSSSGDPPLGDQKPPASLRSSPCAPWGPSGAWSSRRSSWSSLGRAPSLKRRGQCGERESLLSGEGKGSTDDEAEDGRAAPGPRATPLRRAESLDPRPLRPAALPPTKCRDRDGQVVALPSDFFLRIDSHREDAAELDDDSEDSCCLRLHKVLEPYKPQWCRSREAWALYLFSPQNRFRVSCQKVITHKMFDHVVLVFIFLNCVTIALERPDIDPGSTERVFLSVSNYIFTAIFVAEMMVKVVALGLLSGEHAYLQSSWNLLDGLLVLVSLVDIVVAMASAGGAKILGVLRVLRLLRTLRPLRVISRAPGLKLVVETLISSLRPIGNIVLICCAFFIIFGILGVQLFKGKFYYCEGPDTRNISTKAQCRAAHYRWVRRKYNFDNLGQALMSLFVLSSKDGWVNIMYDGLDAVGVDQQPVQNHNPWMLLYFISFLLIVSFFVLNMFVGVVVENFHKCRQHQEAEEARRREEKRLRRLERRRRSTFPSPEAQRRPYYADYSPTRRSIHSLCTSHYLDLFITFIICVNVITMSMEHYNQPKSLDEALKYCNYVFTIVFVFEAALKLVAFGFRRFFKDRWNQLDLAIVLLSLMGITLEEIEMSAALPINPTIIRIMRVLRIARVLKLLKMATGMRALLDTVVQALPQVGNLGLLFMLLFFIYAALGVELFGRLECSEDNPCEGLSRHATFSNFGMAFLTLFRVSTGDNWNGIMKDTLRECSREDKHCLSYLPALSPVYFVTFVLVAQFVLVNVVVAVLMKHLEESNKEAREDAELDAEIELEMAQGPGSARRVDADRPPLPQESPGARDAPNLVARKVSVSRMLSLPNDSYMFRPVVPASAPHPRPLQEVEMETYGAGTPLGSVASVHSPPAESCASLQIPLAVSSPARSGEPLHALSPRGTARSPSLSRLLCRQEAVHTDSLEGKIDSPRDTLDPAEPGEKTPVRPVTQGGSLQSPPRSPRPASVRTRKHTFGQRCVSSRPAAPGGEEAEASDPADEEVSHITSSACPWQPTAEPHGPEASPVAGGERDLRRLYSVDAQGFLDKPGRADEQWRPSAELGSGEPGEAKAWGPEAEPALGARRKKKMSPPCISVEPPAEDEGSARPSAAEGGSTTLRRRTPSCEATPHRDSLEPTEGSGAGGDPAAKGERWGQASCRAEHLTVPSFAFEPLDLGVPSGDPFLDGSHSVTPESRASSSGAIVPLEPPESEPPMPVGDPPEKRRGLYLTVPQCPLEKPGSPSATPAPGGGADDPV

With `COc1cccc(Cn2c(=O)c3c(nc(N(C)Cc4ccccc4)n3C)n(C)c2=O)c1` [Analog 32], the inhibition at 10 µM at SLICK amounted to 28 ± 5.5%; on CaV3.2, 18 ± 1.6%; at TASK-1 it was 17 ± 2.3%.

In the case of `Cn1c(N(Cc2ccccc2)CC2CC2)nc2c1c(=O)n(Cc1ccccc1)c(=O)n2C` [Analog 71], the results for the inhibition at 10 µM on SLICK, on CaV3.2 and on TASK-1 were 17 ± 2.5%, 24 ± 3.6% and 4.9 ± 1.5%, respectively.

In the case of `CCCCN(Cc1ccccc1)c1nc2c(c(=O)n(Cc3ccccc3)c(=O)n2C)n1C` [Analog 70], the inhibition at 10 µM stood at 18 ± 4.2% on SLICK, 16 ± 2.2% at CaV3.2 and 23 ± 2.9% at TASK-1.

With `CN(Cc1cccc(F)c1)c1nc2c(c(=O)n(Cc3ccccc3)c(=O)n2C)n1C` [Analog 48], the inhibition at 10 µM stood at 21 ± 3.1% on SLICK, 17 ± 4.2% on CaV3.2 and 24 ± 2.3% on TASK-1.
